Series [1] deals with MCF7. The series can be described thus: Cytotoxicity against Homo sapiens (human) MCF7 cells after 72 hr by XTT assay. The series is classed as functional, cell-based. Particulars: MCF7, 72 h.
A further series concerns Vero. The series can be described thus: Cytotoxicity against Chlorocebus aethiops (African green monkey) Vero cells after 72 hr by XTT assay. Particulars: Chlorocebus sabaeus. The series is classed as cell-based. A general note: Tetrazolium dyes change colour on reduction, which living cells bring about.
Series [2] in a line: Cytotoxicity against Chlorocebus aethiops (African green monkey) Vero cells assessed as cell survival after 72 hr by XTT assay. The series is classed as cell-based. More on the design: concentration or dose not given beside the values. Particulars: chlorocebus sabaeus, read-out: Activity.
Series [3] has as its system MCF7. The series can be described thus: Cytotoxicity against Homo sapiens (human) MCF7 cells assessed as cell survival after 72 hr by XTT assay. The series is classed as functional. Set-up: concentration or dose not given beside the values.

The structures appear in SMILES notation. Where only a bound is given, the exact number is not on record here.

By IC50 is commonly meant the concentration that inhibits the measured activity by half. Regarding `O=C(CN1C(=O)C(=O)c2cc(Br)cc(Br)c21)Nc1ccc([N+](=O)[O-])cc1`, the values for the IC50 with MCF7 [1] and with Vero were 1960 nM and 38.1 µM, respectively.
In the same order, the values of `Cc1ccc(NC(=O)CN2C(=O)C(=O)c3cc(Br)cc(Br)c32)cc1` are 2430 nM and 25 µM.
With `O=C(CN1C(=O)C(=O)c2cc(Br)cc(Br)c21)Nc1ccccc1[N+](=O)[O-]`, the IC50 with MCF7 [1] was determined as 2040 nM; in the series on Vero, 26 µM.
As to `Cc1ccccc1NC(=O)CN1C(=O)C(=O)c2cc(Br)cc(Br)c21`, the figures for the IC50 with MCF7 [1] and with Vero were 3850 nM and 29.9 µM, respectively.
As for `O=C(CN1C(=O)C(=O)c2ccccc21)Nc1ccc([N+](=O)[O-])cc1`, in series [2], the viability at 72 h is more than 50%. Further, in the series on MCF7 [3], the Activity was more than 50%.
As to `Cc1ccc(NC(=O)CN2C(=O)C(=O)c3ccccc32)cc1`, the viability at 72 h in series [2] is more than 50%. The Activity in the series with MCF7 [3] is given as more than 50%.
For the compound `O=C(CN1C(=O)C(=O)c2ccccc21)Nc1ccccc1[N+](=O)[O-]`, the viability at 72 h in series [2] was more than 50%. In the series with MCF7 [3], the Activity is given as more than 50%.
For `Cc1ccccc1NC(=O)CN1C(=O)C(=O)c2ccccc21`, the viability at 72 h in series [2] was more than 50%. For the same compound, the Activity in the series on MCF7 [3] is recorded as more than 50%.
As for `O=C(CN1C(=O)C(=O)c2cc(Br)cc(Br)c21)Nc1ccccc1`, the IC50 is 3910 nM in the series on MCF7 [1] and 28.1 µM in the series with Vero.
For the compound `O=C(CN1C(=O)C(=O)c2ccccc21)Nc1ccccc1`, the viability at 72 h in series [2] is more than 50%. For the same compound, in the series on MCF7 [3], the Activity was more than 50%.
For `CC[C@]1(O)C[C@@H]2CN(CCc3c([nH]c4ccccc34)[C@@](C(=O)OC)(c3cc4c(cc3OC)N(C)[C@H]3[C@@](O)(C(=O)OC)[C@H](OC(C)=O)[C@]5(CC)C=CCN6CC[C@]43[C@@H]65)C2)C1` [VINBLASTINE], the concentration for half-maximal inhibition (IC50) came out at 1900 nM with MCF7 [1] and 27.1 µM with Vero.

The values above are taken from ChEMBL document CHEMBL3046046, “Design, synthesis, and QSAR study of novel 2-(2,3-dioxo-2,3-dihydro-1H-indol-1-yl)-N-phenylacetamide derivatives as cytotoxic agents” (Med Chem Res, 2011).
